The subject of the assay is CEM cells HIV-1 protection, formazan growth assay. The experiment in a line: NCI AIDS Antiviral Assay. Conditions: for IC50: measured here: growth of uninfected CEM cells. The method, boiled down:
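Protection of CEM cells against HIV-1 was scored from cell growth (soluble formazan) across five concentrations, with parallel uninfected cells. Lack of protection may reflect toxicity.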

Where “and” joins values, the source holds several entries; their conditions need not be identical. Equal entries are not always repeated. Calls of active or inactive are those of the source.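 Rule for the calls: active = compounds giving half or more protection of infected cells from virus-caused growth loss, again on retest; inactive = the rest.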 Where a SMILES comes first, the peptide text is derived from it. The star is where a group is joined. Boc = CC(C)(C)OC(=O)*

This note sets out measurements from PubChem BioAssay AID179 (DTP/NCI, 2004).

`CCCCCCCCCCCCNC(=S)OCCCC`: the result was inactive.
By EC50 is commonly meant the concentration needed to bring the measured effect to its halfway point. As usually defined, the IC50 is the midpoint of a concentration-inhibition curve. `COC(CN(C(C)=O)C1CCC2(SCCS2)c2[nH]c3ccccc3c21)OC` (stereo not drawn): the EC50 was > 200 µM and the concentration for half-maximal inhibition (IC50) was 123 µM.
The matching figures for `CC(=O)[O-].[Mn+3].[O-]c1ccccc1C=NCCNCCN=Cc1ccccc1[O-]`: > 182 µM and 10.5 µM.
In the case of `COC(=O)C(CCC#N)(CCC#N)C(=O)OC`, the EC50 is > 21.9 µM and the IC50 was > 21.9 µM.
For `C=C1CN(S(=O)(=O)c2ccc(C)cc2)CCCN(Cc2ccsc2)CCCN(S(=O)(=O)c2ccc(C)cc2)C1`, the EC50 is > 200 µM and the IC50 is 52.5 µM.
`Cc1cc(=O)c2c(O)c3c(O)cc(O)c4c5c(O)cc(O)c6c(O)c7c(=O)cc(C)c8c1c2c(c34)c(c65)c78`: the EC50 was > 100 µM.
Regarding `COC1CC(C)([N+](=O)[O-])C(O)C(C)O1` (stereo not drawn), the EC50 is > 200 µM and the IC50 is > 200 µM.
Consider `Cc1cc(NC(=O)Nc2ccc(F)cc2)no1`, for which the EC50 is > 200 µM and the IC50 is > 200 µM.
For `Cc1nc2ccccc2n1COC(Cn1ccnc1)c1ccc(Cl)cc1Cl` (stereo not drawn), the EC50 was > 200 µM and the IC50 came to 135 µM.
The matching figures for `C=C[C@@H]1c2ccccc2C=C[C@]12C=CC(=O)CC2`: > 57.5 µM and 21.9 µM.
Consider `C1C2CC3C1C1CN3C21` (stereo not drawn), for which the EC50 was > 724 µM and the IC50 is > 724 µM.
`CSC1=N/C(=C\c2ccccc2)C(=O)N1CN1CCCCC1`: the EC50 is > 200 µM and the IC50 amounted to 115 µM.
In the case of `CC1=C(C)C2(C#N)C(=O)N3C(=NC(c4ccccc4)NC3c3ccccc3)C2(C#N)C(c2ccccc2)N1` (stereo not drawn), the EC50 was > 100 µM and the IC50 was > 100 µM.
As to `CC(C)/C(Cl)=N\OC(=O)Nc1ccccc1F`, the EC50 is > 200 µM and the IC50 was 7.94 µM.
The matching figures for `O=[N+]([O-])c1ccc(N/N=C/CC(O)(C(F)(F)F)C(F)(F)F)c([N+](=O)[O-])c1`: > 200 µM and 7.08 µM.
Consider `O=C(O)CNc1c2ccccc2nc2ccccc12`, for which the result was inactive.
As to `CCOC(=S)/C=C/c1ccccc1`, the result was inactive.
Regarding `O=c1c2ccccc2oc2nccnc12`, the outcome was inactive.
For the molecule `COc1cc(OC)c2c(=O)c3c([N+](=O)[O-])cccc3n(C)c2c1`, the EC50 was > 100 µM and the IC50 is > 100 µM.
Turning to `CC1(CC2=C(Br)CCCC2)C(=O)CC=C1O` (stereo not drawn), the EC50 was > 200 µM and the IC50 stood at 174 µM.
Consider `CCOC(=O)c1c2ccc(/C=C/c3ccccc3)ccc-2c(C(=O)OCC)c1N`, for which the EC50 is > 7.08 µM and the IC50 was > 7.08 µM.
Regarding `O=c1ccn(CC2OCC(CO)O2)c(=O)[nH]1` (stereo not drawn), the EC50 was > 2750 µM; the IC50 is 1150 µM and > 2750 µM.
As to `N#CC(C#N)=Cc1cc(Cl)ccc1O`, the EC50 is > 200 µM and the IC50 was 29.5 µM.
Consider `Cn1c(=O)c(N=Nc2c(=O)n(C)c(=O)n3c2[nH]c2ccccc23)c2[nH]c3ccccc3n2c1=O`, for which the EC50 is > 33.9 µM and the IC50 is > 33.9 µM.
Consider `CCC12CCCN(Cc3ccccc3)C1c1c(n(C)c3ccccc13)[C@H](C(=O)OC)C2` (stereo partly drawn), for which the EC50 was > 12.6 µM and the IC50 is > 12.6 µM.
Turning to `Cc1cnoc1NC1=CC(=O)C(=O)c2ccccc21`, the EC50 is > 200 µM and the IC50 stood at 26.3 µM.
`O=C(O)CSc1n[nH]c(-c2ccccc2O)n1`: the EC50 is > 372 µM and the IC50 is 182 µM.
Turning to `COc1cc2cc(C(=O)N3CC(CCl)c4c3cc(N)c3ccccc43)[nH]c2c(OC)c1OC` (stereo not drawn), the EC50 was > 0.2 µM and the IC50 came out at 0.000832 µM.
The matching figures for `CCOc1ccccc1NC(=O)C(=O)CC(=O)c1c(C)n([O-])c2ccccc2[n+]1=O`: > 110 µM and > 110 µM.
For the molecule `CC1=NC(C)(COC(=O)C2(C)NC(C)(CO)CO2)COC1=O` (stereo not drawn), the EC50 was > 200 µM and the IC50 is > 200 µM.
`ClC1(Cl)C2(Cl)C3(Cl)C4C2(Cl)C2(Cl)C4(Cl)C3(Cl)C12Cl` (stereo not drawn): the EC50 was > 200 µM and the IC50 was determined as 33.1 µM.
For the molecule `CCOC(=O)C(C)(C)Oc1ccc(N=[N+]=[N-])cc1`, the EC50 was > 200 µM and the IC50 is > 200 µM.
In the case of `COc1cc2c(cc1OC)C(=O)C1(C2)[C@H](c2ccccc2)C2C(=O)c3cc(OC)c(OC)cc3C2[C@H]1c1ccccc1` (stereo partly drawn), the EC50 is > 200 µM and the IC50 is > 200 µM.
`CCN(CC)CCNc1ccc(CO)c2oc3cc(Cl)ccc3c(=O)c12`: the EC50 is > 25.1 µM and the IC50 was found to be 4.57 µM.
For `O=[N+]([O-])C(=C/c1cccs1)/C(=C\c1cccs1)[N+](=O)[O-]`, the EC50 is > 200 µM and the IC50 is 1.55 µM.
The matching figures for `CCOC(=O)C1=C(O)c2c(sc(C)c2C)N(S(=O)(=O)c2ccc(C)cc2)CC1`: > 200 µM and 52.5 µM.
In the case of `N#CCCN(c1ccc(C=O)cc1)S(=O)(=O)c1ccccc1`, the EC50 is > 22.9 µM and the IC50 is > 22.9 µM.
Take `C=C1C(C)C2C(Cc3ccccc3)NC(=O)C23C(OC(C)=O)/C=C/C(C)(O)CC(C)C/C=C/C3C1O` (stereo not drawn): the EC50 was > 2 µM and the IC50 is 0.0977 µM.
For the molecule `O=c1ccc2cc3ccoc3c(OCCCCCCCCCCCCOc3c4occc4cc4ccc(=O)oc34)c2o1`, the EC50 was > 38.9 µM and the IC50 is > 38.9 µM.
For `COC1C(OC(N)=O)C(O)C(Oc2ccc3c(O)c(NC(=O)c4ccc(O)c(CC=C(C)C)c4)c(=O)oc3c2C)OC1(C)C` (stereo not drawn), the EC50 was > 389 µM and the IC50 came to 79.4 µM.
On to `CC(=O)NC1=NC(=O)/C(=C/c2ccc(Cl)cc2Cl)N1C`, for which the outcome was inactive.
Take `CCN1c2nc3ccccc3nc2N(CC)c2nc3ccccc3nc21`: the EC50 is > 200 µM and the IC50 was determined as 41.7 µM.
Turning to `CC(C)CCC1(CCSC#N)C(=O)NC(=O)NC1=O`, the EC50 was > 200 µM and the IC50 was 37.2 µM.
On to `Cc1ccc(Oc2cc(C)ccc2P(=O)(O)O)cc1`, for which the EC50 was > 200 µM and the IC50 came to 138 µM.
Turning to `CCNc1nc2ccccc2nc1NCC`, the EC50 was > 200 µM and the IC50 is > 200 µM.
On to `C=CCNc1nc2c(s1)c(C)c(O)c1ccccc12`, for which the EC50 is > 200 µM and the IC50 amounted to 3.55 µM.
With `CCC([NH-])C(=O)O.CCC([NH-])C(=O)O.[Cu+2]` (stereo not drawn), the EC50 was > 200 µM and the half-maximal inhibitory concentration (IC50) came out at 18.2 µM.
With `CC1C(=O)N(C)C2(CO)C(=O)O[C@H](C)C12O` (stereo partly drawn), the outcome was inactive.
As to `CN(C)CCNC(=O)c1cccc(C(C)(C)C)c1[N+](=O)[O-]`, the EC50 was > 200 µM and the IC50 was 135 µM.
As to `CCC1(c2ccccc2)Oc2ccccc2-n2cccc2C1=O` (stereo not drawn), the EC50 is 1.78 µM and the IC50 came out at 5.01 µM.
`C=C[C+](CCCC)C(=O)[O-]`: the half-maximal effective concentration (EC50) was 589 µM and the IC50 came out at 631 µM.
Consider `CC1(C)CC(=O)C(/C=N/c2nc(-c3ccccc3)cs2)=C(O)C1`, for which the EC50 is > 200 µM and the IC50 was > 200 µM.
Consider `COc1cccc2c1OC(=O)C(S(=O)(=O)c1ccccc1)C2` (stereo not drawn), for which the EC50 is > 562 µM and the IC50 is > 562 µM.
On to `Cc1ccc(C2NC(=S)N3C(c4ccc(C)cc4)NC(=S)N23)cc1` (stereo not drawn), for which the EC50 is > 200 µM and the IC50 was found to be 3.39 µM.
Consider `COc1ccc(/C=C/C(=O)c2c(-c3ccccc3)nn(C)c(=O)c2N2CCOCC2)cc1`, for which the EC50 is > 44.7 µM and the half-maximal inhibitory concentration (IC50) was > 44.7 µM.
Turning to `N=C(N)SCc1ccc2c(c1)S(=O)(=O)c1ccccc1O2`, the EC50 was > 200 µM and the IC50 stood at 13.2 µM.
For the molecule `OC(C/C(=N\N1CCCCC1)c1cccs1)(C(F)(F)F)C(F)(F)F`, the EC50 was > 200 µM and the IC50 came to 145 µM.
In the case of `Cc1csc2nc(-c3ccco3)nn12`, the EC50 was > 200 µM and the IC50 is > 200 µM.
Regarding `COC(=O)C1Cc2cc3c(cc2C1)CCC3`, the EC50 was > 200 µM and the IC50 was > 200 µM.
For `CCOC(=O)C(=CN1C/C(=C/C(C)=C/c2ccccc2)SC1=S)C(=O)OCC`, the EC50 is > 100 µM and the IC50 was 18.2 µM.
As for `O=C1OC(=O)C2C3C=CC(C12)C1C2C=CC2C31` (stereo not drawn), the outcome was inactive.
Turning to `O=C1N/C(=N\N=C\c2ccccc2)C(c2ccccc2)O1` (stereo not drawn), the EC50 was > 200 µM and the IC50 amounted to 33.9 µM.
As to `Cc1ncc([N+](=O)[O-])n1CCNC(=O)Cn1c([N+](=O)[O-])cnc1C`, the EC50 was > 200 µM and the IC50 is > 200 µM.
With `CCSc1c2cc(OC)ccc2nc2ccc(OC)cc12`, the EC50 is > 200 µM and the IC50 was found to be 6.92 µM.
In the case of `CC(=O)OCC1CC(n2cc(C)c(=O)[nH]c2=O)=NO1` (stereo not drawn), the EC50 is > 200 µM and the IC50 was > 200 µM.
On to `CC(=O)C(CN(C)C)C(c1ccccc1)c1c(O)c2ccccc2oc1=O` (stereo not drawn), for which the EC50 is > 64.6 µM and the IC50 worked out at 11 µM.
For the molecule `CCCC(/C=N/N=C(N)N)=N\N=C(N)N`, the EC50 was > 83.2 µM and the IC50 was > 83.2 µM.
`COc1ccc2c(C)cc(N/N=C/c3ccc(C)s3)nc2c1`: the EC50 was > 200 µM and the IC50 worked out at 9.12 µM.
On to `Cc1ccc(-c2cc(-c3ccco3)c(C#N)c(=O)n2C2OC(CO)C(O)C(O)C2O)cc1` (stereo not drawn), for which the EC50 was 25.7 µM and the IC50 came out at 81.3 µM.
`CNc1c(Br)cc(/C=C2\C=Cc3ccccc32)cc1Br`: the EC50 is > 9.55 µM and the IC50 is > 9.55 µM.
Take `S=C(N/N=C/c1cccc2ccccc12)Nc1c(Cl)cccc1Cl`: the EC50 was > 200 µM and the IC50 was 102 µM.
`c1ccc(-c2csc3[nH]c4ccccc4[n+]23)cc1`: the outcome was inactive.
Consider `COC(=O)C(Cc1c[nH]c2ccccc12)NC(=O)C(Cc1c[nH]c2ccccc12)NC(=O)C(Cc1c[nH]c2ccccc12)NC(=O)C(Cc1c[nH]c2ccccc12)NC(=O)OC(C)(C)C` (stereo not drawn) (Boc-WWWW-OMe; configuration not given here), for which the EC50 was > 100 µM and the IC50 was determined as 13.8 µM.
In the case of `C/C(=N\O)c1ccccc1`, the outcome was inactive.
